From patent US11766405B2 (MEDAC GESELLSCHAFT FUR KLINISCHE SPEZIALPRAPARATE MBH, priority 2013, dated 2023)
Several values for one entry are separate records, joined by “and”; a condition that tells them apart may be missing. Identical values can stand only once.

What was measured:
Format in all cases: physicochemical
[1] = HPLC determination of impurities / mitomycin purity, process 2 (UV 254 nm)
Procedure: Column: YMC-Pack Phenyl 4.6 mm×300 mm, 10 μm […]
Purity determinations according to process 2 were performed at different times. […]

[2] = Mitomycin C content, process 3 (content process Ph Eur 8.0 Mitomycin Monograph); conditions: for Mitomycin C content: process 3; for Mitomycin content: No. 6: DMSO/DMAA 5.7/94.3 wt.-%, 0.53 mg/g mitomycin C, 8.0 mg/g urea, room temperature, exclusion of light
Procedure: (§1) The solutions were stored at room temperature and with exclusion of light for a period of up to 71.5 hours.
Process 3 corresponds to the content process according to Ph Eur 8.0 Mitomycin Monograph January 2008: 1655. Process 4 corresponds to the impurities process according to Ph Eur 8.0 Mitomycin Monograph January 2008: 1655. […]

[3] = Impurities / purity, process 4 (impurities process Ph Eur 8.0 Mitomycin Monograph); conditions: for Impurity albomitomycin C / Sum of all impurities: Example 13 urea lyophilisate, process 4; for Mitomycin purity: No. 7: DMSO 100 wt.-%, 1.82 mg/g mitomycin C, 27.3 mg/g urea, room temperature, exclusion of light
Procedure: The composition according to the invention comprises the impurities D1, D2 and albomitomycin C in a total quantity of in particular less than 2.0%, preferably less than 1.5%, particularly preferably less than 1.0%, more preferably less than 0.8% and quite particularly preferably less than 0.6%, wherein the quantity of these impurities is determined according to the impurities process according to Ph Eur 8.0 Mitomycin Monograph January 2008: 1655. In the examples, this determination process is also referred to as process 4.
as §1
Process 3 corresponds to the content process according to Ph Eur 8.0 Mitomycin Monograph January 2008: 1655. Process 4 corresponds to the impurities process according to Ph Eur 8.0 Mitomycin Monograph January 2008: 1655.
(§2) The reconstitution was effected with 20 and 40 ml respectively of isotonic saline solution to an end concentration of 1 mg/ml.

[4] = Reconstitution time of lyophilisates; conditions: Example 13 urea lyophilisate
Procedure: Moreover, the lyophilisates could be completely reconstituted with isotonic saline solution in very much less than 30 secs.
In addition, the reconstitution time was determined.
as §2

[5] = 20 mg mitomycin C, 40° C. and 75% r.h., t = 3 months
[6] = 20 mg mitomycin C, 40° C. and 75% r.h., t = 6 months
[7] = 40 mg mitomycin C, 40° C. and 75% r.h., t = 3 months
[8] = 40 mg mitomycin C, 40° C. and 75% r.h., t = 6 months

SMILES: CO[C@@]12[C@H](COC(N)=O)C3=C(C(=O)C(C)=C(N)C3=O)N1C[C@@H]1N[C@@H]12 [Mitomycin C, (1aS,8S,8aR,8bS)-6-amino-8-[[(aminocarbonyl)oxy]methyl]-1,1a,2,8,8a,8b-hexahydro-8a-methoxy-5-methyl-azirino[2′,3′:3,4]pyrrolo[1,2-a]indol-4,7-dione]
- Mitomycin purity [1]: 98.86% and 96.77% and 97.04%
- Mitomycin purity ([1]; Example 5 solution: 3.33 mg/g mitomycin C, 5 wt.-% urea, 89/11 wt.-% tert.-butanol/water, 5° C. with exclusion of light, t = 0): 99.23%
- Mitomycin purity ([1]; Example 5 solution: 3.33 mg/g mitomycin C, 5 wt.-% urea, 89/11 wt.-% tert.-butanol/water, 5° C. with exclusion of light, t = 6 h): 99.18%
- Mitomycin purity ([1]; Example 5 solution: 3.33 mg/g mitomycin C, 5 wt.-% urea, 89/11 wt.-% tert.-butanol/water, 5° C. with exclusion of light, t = 24 h): 99.20%
- Mitomycin purity ([1]; Example 5 solution: 3.33 mg/g mitomycin C, 5 wt.-% urea, 89/11 wt.-% tert.-butanol/water, 5° C. with exclusion of light, t = 72 h): 98.80%
- Mitomycin purity ([1]; Example 5 solution: 3.33 mg/g mitomycin C, 5 wt.-% urea, 89/11 wt.-% tert.-butanol/water, 5° C. with exclusion of light, t = 9 d): 98.21%
- Mitomycin purity ([1]; Example 5 solution: 3.33 mg/g mitomycin C, 5 wt.-% urea, 89/11 wt.-% tert.-butanol/water, RT with exclusion of light, t = 0): 99.33%
- Mitomycin purity ([1]; Example 5 solution: 3.33 mg/g mitomycin C, 5 wt.-% urea, 89/11 wt.-% tert.-butanol/water, RT with exclusion of light, t = 6 h): 98.83%
- Mitomycin purity ([1]; Example 5 solution: 3.33 mg/g mitomycin C, 5 wt.-% urea, 89/11 wt.-% tert.-butanol/water, RT with exclusion of light, t = 24 h): 97.80%
- Mitomycin purity ([1]; Example 5 solution: 3.33 mg/g mitomycin C, 5 wt.-% urea, 89/11 wt.-% tert.-butanol/water, RT with exclusion of light, t = 72 h): 96.74%
- Mitomycin purity ([1]; Example 5 solution: 3.33 mg/g mitomycin C, 5 wt.-% urea, 89/11 wt.-% tert.-butanol/water, RT with exclusion of light, t = 9 d): 96.35%
- Mitomycin purity ([1]; Example 5 solution: 3.33 mg/g mitomycin C, 5 wt.-% urea, 89/11 wt.-% tert.-butanol/water, RT without protection against light, t = 0): 99.32%
- Mitomycin purity ([1]; Example 5 solution: 3.33 mg/g mitomycin C, 5 wt.-% urea, 89/11 wt.-% tert.-butanol/water, RT without protection against light, t = 6 h): 98.83%
- Mitomycin purity ([1]; Example 5 solution: 3.33 mg/g mitomycin C, 5 wt.-% urea, 89/11 wt.-% tert.-butanol/water, RT without protection against light, t = 24 h): 97.60%
- Mitomycin purity ([1]; Example 5 solution: 3.33 mg/g mitomycin C, 5 wt.-% urea, 89/11 wt.-% tert.-butanol/water, RT without protection against light, t = 72 h): 96.14%
- Mitomycin purity ([1]; Example 5 solution: 3.33 mg/g mitomycin C, 5 wt.-% urea, 89/11 wt.-% tert.-butanol/water, RT without protection against light, t = 9 d): 95.78%
- Mitomycin C purity ([1]; Example 7 solution: 1.33 mg/g mitomycin C, 20 mg/g urea, 89/11 wt.-% tert.-butanol/water, 5° C. with exclusion of light, t = 27 h): 99.7%
- Mitomycin C purity ([1]; Example 7 solution: 1.33 mg/g mitomycin C, 20 mg/g urea, 89/11 wt.-% tert.-butanol/water, RT with exclusion of light, t = 5 h): 99.7%
- Mitomycin C purity ([1]; Example 7 solution: 1.33 mg/g mitomycin C, 20 mg/g urea, 89/11 wt.-% tert.-butanol/water, RT with exclusion of light, t = 22 h): 99.2%
- Mitomycin C purity ([1]; Example 7 solution: 1.33 mg/g mitomycin C, 20 mg/g urea, 89/11 wt.-% tert.-butanol/water, RT with exclusion of light, t = 27 h): 98.9%
- Mitomycin C purity ([1]; Example 8 solution: 1.67 mg/g mitomycin C, 25 mg/g urea, 89/11 wt.-% tert.-butanol/water, RT with exclusion of light, t = 5 h): 99.6%
- Mitomycin C purity ([1]; Example 8 solution: 1.67 mg/g mitomycin C, 25 mg/g urea, 89/11 wt.-% tert.-butanol/water, RT with exclusion of light, t = 22 h): 99.1%
- Mitomycin C purity ([1]; Example 8 solution: 1.67 mg/g mitomycin C, 25 mg/g urea, 89/11 wt.-% tert.-butanol/water, RT with exclusion of light, t = 27 h): 98.6%
- Mitomycin C content ([2]; Example 13 urea lyophilisate, 20 mg mitomycin C, 40° C. and 75% r.h., t = 3 months): 98.2%
- Mitomycin C content ([2]; Example 13 urea lyophilisate, 20 mg mitomycin C, 40° C. and 75% r.h., t = 6 months): 98.3%
- Mitomycin C content ([2]; Example 13 urea lyophilisate, 20 mg mitomycin C, t = 0): 97.8%
- Mitomycin C content ([2]; Example 13 urea lyophilisate, 40 mg mitomycin C, 40° C. and 75% r.h., t = 3 months): 96.6%
- Mitomycin C content ([2]; Example 13 urea lyophilisate, 40 mg mitomycin C, 40° C. and 75% r.h., t = 6 months): 96.7%
- Mitomycin C content ([2]; Example 13 urea lyophilisate, 40 mg mitomycin C, t = 0): 97.2%
- Mitomycin C content ([2]; Example 14 urea lyophilisate (20 mg) reconstituted with water for injection, end concentration 1 mg/ml): 100.6%
- Mitomycin C content ([2]; Example 14 urea lyophilisate (20 mg) reconstituted with water for injection, end concentration 2 mg/ml): 100.6%
- Mitomycin content ([2]; t = 0): 100%
- Mitomycin content ([2]; t = 6.5 h): 99.93%
- Mitomycin content ([2]; t = 14.5 h): 99.62%
- Mitomycin content ([2]; t = 21 h): 98.84%
- Mitomycin content ([2]; t = 42 h): 99.11%
- Mitomycin content ([2]; t = 71.5 h): 98.58%
- Impurity albomitomycin C [3, 5]: 0.20%
- Sum of all impurities [3, 5]: 0.55%
- Impurity albomitomycin C [3, 6]: 0.26%
- Sum of all impurities [3, 6]: 0.61%
- Impurity albomitomycin C ([3]; 20 mg mitomycin C, t = 0): 0.29%
- Sum of all impurities ([3]; 20 mg mitomycin C, t = 0): 0.29%
- Impurity albomitomycin C [3, 7]: 0.22%
- Sum of all impurities [3, 7]: 0.55
- Impurity albomitomycin C [3, 8]: 0.21%
- Sum of all impurities [3, 8]: 0.58
- Impurity albomitomycin C ([3]; 40 mg mitomycin C, t = 0): 0.32%
- Sum of all impurities ([3]; 40 mg mitomycin C, t = 0): 0.32
- Mitomycin purity ([3]; t = 0): 100%
- Mitomycin purity ([3]; t = 4 h): 99.31%
- Mitomycin purity ([3]; t = 6.5 h): 99.32%
- Mitomycin purity ([3]; t = 13 h): 99.19%
- Mitomycin purity ([3]; t = 20 h): 99.36%
- Mitomycin purity ([3]; t = 26.5 h): 99.32%
- Reconstitution time ([4]; 20 mg mitomycin C, 20 ml isotonic saline to 1 mg/ml, 40° C. and 75% r.h., t = 3 months): 12 s
- Reconstitution time ([4]; 20 mg mitomycin C, 20 ml isotonic saline to 1 mg/ml, 40° C. and 75% r.h., t = 6 months): 17 s
- Reconstitution time ([4]; 20 mg mitomycin C, 20 ml isotonic saline to 1 mg/ml, t = 0): 7 s
- Reconstitution time ([4]; 40 mg mitomycin C, 40 ml isotonic saline to 1 mg/ml, 40° C. and 75% r.h., t = 3 months): 20 s
- Reconstitution time ([4]; 40 mg mitomycin C, 40 ml isotonic saline to 1 mg/ml, 40° C. and 75% r.h., t = 6 months): 18 s
- Reconstitution time ([4]; 40 mg mitomycin C, 40 ml isotonic saline to 1 mg/ml, t = 0): 6 s
